Data reported in US20230203060A1 (GENFLEET THERAPEUTICS (SHANGHAI) INC., priority 2020, published 2023).
Where two headings read alike, the source gives them in different places.

Key:
KRAS G12C = biological target: T1, KRAS G12C (Homo sapiens, UniProt P01116, G12C); assay: KRAS G12C NEA-HTRF experiment (SOS1-catalyzed displacement of GDP by GTP); format: biochemical
T1 construct: purchased Reactionbiology
From the text: Raw materials and instruments: KRAS G12C (his-tag) purchased from Reactionbiology; batch number 3496; SOS1 purchased from Reactionbiology; batch number: 3501; GTP purchased from Sigma; article number: G8877; batch number: SLBV1450; Tris-HC1 purchased from Sigma; EDTA purchased from absin; article number: abs42017668; batch number: JE20; NaCl purchased from Sigma; article number: 55886; batch number: SLBW4193; MgCl2 purchased from Shyuanye; article number: R21455; batch number: L07S9G69806; HEPES purchased from Life Technologies; article number: 15630-080; batch number: 2037042; DTT purchased from Thermo Fisher; article number: R0862; batch number: 00608918; Triton X-100 purchased from Sigma; article number: T8787-100 ML; batch number: SLBW7103; DY647-labeled GDP purchased from Jena Bioscience; article number: NU-840-647P1; batch number: BM019-045; Anti-6H1S-Tb purchased from Cisbio; article number: 61H12TLA; batch number: 13A; Bradford Assay Kit purchased from Thermo Fisher; article number: 23246; batch number: UG287474; white opaque 96-well plate purchased from Cisbio; article number: 66PL96025; batch number: N°06; NAP-5 column purchased from GE Healthcare; article number: 17085301; batch number: 16995164; mircoplate reader purchased from PerkinElmer; model: Envision MLD2105-0020; equipment number 1050369. The effect of compounds on SOS1-catalyzed displacement of GDP by GTP on KRAS protein was examined using a homogeneous time-resolved fluorescence (HTRF) method. 30 μM 6×his-tagged KRAS G12C recombinant protein was incubated with 80 μM fluorescent dye DY647-labeled GDP in labeling buffer (1 mM DTT, 7.5 mM EDTA, 25 mM Tris-HCl, 45 mM NaCl) at 20° C. in the dark for 2 hours, purified using NAP-5 column, and then protein quantification was performed with Bradford Assay Kit after purification to determine the concentration of KRAS […] 3.16-fold gradient concentration stock solution of 1000× compound was prepared with DMSO, and diluted 250-fold to 4× compound stock solution with reaction buffer (40 mM HEPES, 10 mM MgCl2, 1 mM DTT, 0.002% Triton X-100). KRAS G12C-GDP/Tb working solution (40 nM KRAS […] Tb) and SOS1/GTP working solution (0.2 μM SOS1, 200 μM GTP) were prepared using the reaction buffer. A white opaque 96-well plate was taken, and 5 μL of 4× compound stock solution and 10 μL of KRAS G12C-GDP/Tb working solution were added to each well. 5 μL of reaction buffer instead of 4x compound stock solution was used in the control well. After incubation in the dark for 15 minutes at 20° C., 5μL of SOS1/GTP working solution was added thereto, and the fluorescence value (excitation wavelength: 320 nm, emission wavelength: 615 nm and 665 nm) was read after incubating at 20° C. in the dark for 2 hours. Another T0 group was set up with 10 μL reaction buffer+10 μL KRAS G12C-GDP/Tb working solution, and the fluorescence value was read directly by the microplate reader. The fluorescence signal ratio RLU=(665 nm signal/615 nm signal)×10^4; and the compound inhibition rate IR (%)=(RLUcompound-RLUcontrol)/(RLUT0-RLUcontrol)×100% were calculated. The IC50 value was calculated by fitting the gradient dilution concentration of compound and the corresponding inhibition rate with the four-parameter method. The NEA activity of the compounds prepared in the above embodiments of the present disclosure was 0.0001 μM to 1 μM; the inhibitory activity of some compounds on KRAS G12C mutant MIA PaCa-2 cells was 0.001 μM to 0.5 μM or 0.001 μM to 0.1 μM.

[1] = test system: KRAS G12C mutant NCI-H358 cells; assay: Cell proliferation inhibition experiment, 3D spheroid, CellTiter-Glo, NCI-H358; format: cell-based, human; conditions: NCI-H358 (KRAS G12C mutant) 3D spheroid, 5 days with compound, CellTiter-Glo, read-out: H358 IC50
In short: (§1)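 Luminescence (CellTiter-Glo, 30 min incubation) was read after 5 days of compound treatment of overnight-formed spheroids of 800 H358 or 400 A549 cells in 2% FBS medium. Inhibition relative to DMSO and blank controls was fitted with a four-parameter model to yield IC50.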

[2] = test system: KRAS G12C mutant MIA PaCa-2 cells; assay: Cell proliferation inhibition experiment, 3D spheroid, CellTiter-Glo, MIA PaCa-2; format: cell-based, human; conditions: 3D cell model in 384-well spheroid plate, 5 days, CellTiter-Glo, read-out: MIA-PaCa2 IC50
In short: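 200 MIA PaCa-2 cells/well grown overnight as 3D spheroids, then exposed to 3.16-fold compound dilutions (0.1% DMSO final) for 5 days. Viability read by CellTiter-Glo luminescence; inhibition calculated against DMSO and medium-only controls, and IC50 fitted by four-parameter model.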

[3] = test system: A549 cells (KRAS G12S mutant); assay: Cell proliferation inhibition experiment, 3D spheroid, CellTiter-Glo, A549; format: cell-based, human; conditions: A549 (KRAS G12S mutant) 3D spheroid, 5 days with compound, CellTiter-Glo, read-out: A549 IC50
In short: as §1

[4] = Homo sapiens, MIA PaCa-2, 120 h

T1 sequence (P01116 1-188 isoform P01116-2 G12C): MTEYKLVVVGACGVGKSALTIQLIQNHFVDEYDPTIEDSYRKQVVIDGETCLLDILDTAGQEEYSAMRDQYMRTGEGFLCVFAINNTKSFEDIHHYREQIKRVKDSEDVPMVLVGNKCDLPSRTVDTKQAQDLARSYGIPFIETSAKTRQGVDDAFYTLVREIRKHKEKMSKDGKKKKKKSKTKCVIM

Row | Structure (SMILES) | IC50 (KRAS G12C) [nM] | IC50 ([1]; Homo sapiens, NCI-H358, 120 h) [nM] | IC50 [2, 4] [nM] | IC50 ([3]; Homo sapiens, A549, 120 h) [nM] | IC50 [1] [nM] | IC50 [2] [nM] | IC50 [3] [nM]
1 | C=CC(=O)N1CCN2C(=O)c3c(N4CCN(C)[C@H](C)[C@@H]4C)nc(-c4ccccc4F)c(Cl)c3OC[C@H]2C1 (single isomer, unassigned) [Z465-2] | > 10000 |  |  |  |  |  | 
2 | C=CC(=O)N1CCN2C(=O)c3c(N4Cc5nncn5CC4C)nc(-c4c(O)cccc4F)c(Cl)c3OC[C@H]2C1 (stereo partly drawn) [Z277-1, (6aR)-8-acryloyl-4-chloro-3-(2-fluoro-6-hydroxyphenyl)-1-(6-methyl-5,6-dihydro-[1,2,4]triazolo [4,3-a]pyrazin-7(8H)-yl)-6,6a,7,8,9,10-hexahydro-12H-pyrazino[2,1-c]pyrido[3,4-f][1,4]oxazepin-12-one] | 33 |  |  |  |  |  | 
3 | C=CC(=O)N1CCN2C(=O)c3c(N4C[C@H](O)CC4(C)C)nc(-c4c(F)ccc(F)c4O)c(F)c3OC[C@H]2C1 (single isomer, unassigned) [Z449-2] | 389 |  |  |  |  |  | 
4 | C=CC(=O)N1CCN2C(=O)c3c(-c4ccnn4C(C)C)nc(-c4c(O)cccc4F)c(Cl)c3OC[C@H]2C1 [Z77, (6aR)-8-acryloyl-4-chloro-3-(2-fluoro-6-hydroxyphenyl)-1-(1-isopropyl-1H-pyrazol-5-yl)-6,6a,7,8,9,10-hexahydro-12H-pyrazino[2,1-c]pyrido[3,4-f][1,4]oxazepin-12-one] |  | 157 | 365 | > 20000 |  |  | 
5 | C=CC(=O)N1CCN2C(=O)c3c(OCC4CCN(C)CC4)nc(-c4c(O)cccc4F)c(Cl)c3OC[C@H]2C1 [Z40, (6aR)-8-acryloyl-1-((1-methylpiperidin-4-yl)methoxy)-4-chloro-3-(2-fluoro-6-hydroxyphenyl)-6,6a,7,8,9,10-hexahydro-12H-pyrazino[2,1-c]pyrido[3,4-f][1,4]oxazepin-12-one] |  | 91 | 57 | > 30000 |  |  | 
6 | C=CC(=O)N1CCN2C(=O)c3c(N4CC5CN(C)CC5C4)nc(-c4c(O)cccc4F)c(Cl)c3OC[C@H]2C1 (stereo partly drawn) [Z60, (6aR)-8-acryloyl-4-chloro-3-(2-fluoro-6-hydroxyphenyl)-1-(5-methylhexahydropyrrolo[3,4-c]pyrrol-2 (1H)-yl)-6,6a,7,8,9,10-hexahydro-12H-pyrazino[2,1-c]pyrido[3,4-f][1,4]oxazepin-12-one] |  | 125 | 94 | > 30000 |  |  | 
7 | C=CC(=O)N1CCN2C(=O)c3c(N4CCCC45CCOC5)nc(-c4c(O)cccc4F)c(Cl)c3OC[C@H]2C1 (stereo partly drawn) [Z58, (6aR)-8-acryloyl-4-chloro-3-(2-fluoro-6-hydroxyphenyl)-1-(7-oxa-1-azaspiro[4.4]nonan-1-yl)-6,6a,7,8,9,10-hexahydro-12H-pyrazino[2,1-c]pyrido[3,4-f][1,4]oxazepin-12-one] |  | 145 | 237 | > 5000 |  |  | 
8 | C=CC(=O)N1CCN2C(=O)c3c(N4CCN(C)CC4)nc(-c4c(O)cccc4F)c(Cl)c3OC[C@H]2C1 [Z30, (6aR)-8-acryloyl-4-chloro-3-(2-fluoro-6-hydroxyphenyl)-1-(4-methylpiperazin-1-yl)-6,6a,7,8,9,10-hexahydro-12H-pyrazino[2,1-c]pyrido[3,4-f][1,4]oxazepin-12-one] |  | 40 | 41 | > 20000 |  |  | 
9 | C=CC(=O)N1CCN2C(=O)c3c(N(C)C4CCOCC4)nc(-c4c(O)cccc4F)c(Cl)c3OC[C@H]2C1 [Z25, (6aR)-8-acryloyl-4-chloro-3-(2-fluoro-6-hydroxyphenyl)-1-(methyl(tetrahydro-2H-pyran-4-yl)amino)-6,6a,7,8,9,10-hexahydro-12H-pyrazino[2,1-c]pyrido[3,4-f][1,4]oxazepin-12-one] |  | 58 | 81 | > 20000 |  |  | 
10 | C=CC(=O)N1CCN2C(=O)c3c(-c4ccccc4)nc(-c4c(O)cccc4F)c(Cl)c3OC[C@H]2C1 [Z53, (6aR)-8-acryloyl-4-chloro-3-(2-fluoro-6-hydroxyphenyl)-1-phenyl-6,6a,7,8,9,10-hexahydro-12H-pyrazino[2,1-c]pyrido[3,4-f]oxazepin-12-one] |  |  |  |  | 146 | 292 | > 30000
11 | C=CC(=O)N1CCN2C(=O)c3c(-c4ccncc4)nc(-c4c(O)cccc4F)c(Cl)c3OC[C@H]2C1 [Z54] |  | 124 | 169 | > 30000 |  |  | 
12 | C=CC(=O)N1CCN2C(=O)c3c(N4CCC5(COC5)C4)nc(-c4c(O)cccc4F)c(Cl)c3OC[C@H]2C1 [Z45, (6aR)-8-acryloyl-4-chloro-3-(2-fluoro-6-hydroxyphenyl)-1-(2-oxa-6-azaspiro[3.4]octan-6-yl)-6,6a,7,8,9,10-hexahydro-12H-pyrazino[2,1-c]pyrido[3,4-f][1,4]oxazepin-12-one] |  | 46 | 60 | > 20000 |  |  | 
13 | C=CC(=O)N1CCN2C(=O)c3c(N4CCC5(CCC5)C4)nc(-c4c(O)cccc4F)c(Cl)c3OC[C@H]2C1 [Z35, (6aR)-8-actyloyl-4-chloro-3-(2-fluoro-6-hydroxyphenyl)-1-(6-azaspiro[3.4]octan-6-yl)-6,6a,7,8,9,10-hexahydro-12H-pyrazino[2,1-c]pyrido[3,4-f][1,4]oxazepin-12-one] |  |  |  |  | 21 | 36 | > 5000
14 | C=CC(=O)N1CCN2C(=O)c3c(N4CCC5(CCCC5)C4)nc(-c4c(O)cccc4F)c(Cl)c3OC[C@H]2C1 [Z34, (6aR)-8-acryloyl-4-chloro-3-(2-fluoro-6-hydroxyphenyl)-1-(2-azaspiro[4.4]nonan-2-yl)-6,6a,7,8,9,10-hexahydro-12H-pyrazino[2,1-c]pyrido[3,4-f][1,4]oxazepin-12-one] |  | 32 | 81 | 4910 |  |  | 
15 | C=CC(=O)N1CCN2Cc3c(C(=O)N(C)C(C)C)nc(-c4ccccc4F)c(Cl)c3OC[C@H]2C1 [Z656, (R)-8-acryloyl-4-chloro-3-(2-fluorophenyl)-N-isopropyl-N-methyl-6a,7,8,9,10,12-hexahydro-6H-pyrazino[2,1-c]pyrido[3,4-f][1,4]oxazepine-1-carboxamide] | > 10000 |  |  |  |  |  | 
16 | C=CC(=O)N1CCN2C(=O)c3c(N4CCN(C)CC45CC5)nc(-c4c(O)cccc4F)c(Cl)c3OC[C@H]2C1 [Z57, (6aR)-8-acryloyl-4-chloro-3-(2-fluoro-6-hydroxyphenyl)-1-(7-methyl-4,7-diazaspiro[2.5]octan-4-yl)-6,6a,7,8,9,10-hexahydro-12H-pyrazino[2,1-c]pyrido[3,4-f][1,4]oxazepin-12-one] |  | 134 | 118 | > 30000 |  |  | 
